Results reported in patent US10611760B2, “Therapeutic compounds as inhibitors of the orexin-1 receptor” (C4X Discovery Limited, priority 2014, dated 2020).

How the values were obtained:
Format in all cases: cell-based
orexin-1 = biological target: T1, orexin-1 (Homo sapiens, UniProt O43613); assay: Antagonism against orexin-1 in the aforementioned (above identified) intracellular calcium assays
T1 construct: expressed in transfected cells
T1 sequence (O43613 1-425): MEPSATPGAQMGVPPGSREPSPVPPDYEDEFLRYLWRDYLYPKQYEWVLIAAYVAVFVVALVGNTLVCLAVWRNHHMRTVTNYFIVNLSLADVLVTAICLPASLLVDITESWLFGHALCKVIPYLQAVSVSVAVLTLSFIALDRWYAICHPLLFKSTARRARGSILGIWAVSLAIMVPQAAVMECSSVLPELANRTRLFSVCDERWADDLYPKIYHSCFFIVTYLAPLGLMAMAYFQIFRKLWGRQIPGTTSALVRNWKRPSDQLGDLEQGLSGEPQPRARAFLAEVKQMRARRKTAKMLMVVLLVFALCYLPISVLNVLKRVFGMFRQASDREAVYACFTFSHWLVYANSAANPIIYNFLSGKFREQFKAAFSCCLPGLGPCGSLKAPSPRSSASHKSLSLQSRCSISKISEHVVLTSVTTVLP
Source text: Antagonism against orexin receptors has been measured for each example compound using at least one of the following procedures. […] These values may fluctuate depending on the daily cellular assay performance. Fluctuations of this kind are known to those skilled in the art. […] Data highlighted with an asterix (*) is derived from a single experiment, otherwise all data reported is an average of at least two independant replicate experiments. […]

hOX1R [1] = biological target: T2, hOX1R (Homo sapiens, UniProt O43613); assay: Intracellular calcium measurements using stable-replicating cells, Method A, OX1; details: orexin-A at 4×EC50, * = single experiment, read-out: pIC50 OX1 (converted)
T2 sequence (O43613 1-425): T1 sequence (O43613 1-425)
Method: (§1) Intracellular Calcium Measurements Using Stable-replicating Cells:
(§2) Method A (Table 2): Test compounds are prepared as 10 mM stock solutions in DMSO, warmed briefly for 20 seconds at 37° C. and serially diluted in half log concentrations with DMSO followed by dilution with assay buffer (HBSS (Sigma-Aldrich, H8264) containing 10 mM HEPES (Invitrogen, 15630080) and pH adjusted to 7.4) to a top final assay concentration of 10 μM.
(§3) Human OX1 (CT-A674) and human OX2 (CT-A675) receptor-expressing stable-replicating cells are grown in a culture medium, Ham F12 (Invitrogen, 31765-035) containing 10% fetal bovine serum (Invitrogen, 16000044), 1% non-essential amino acids (Invitrogen, 11140-050), 100 U/mL Penicillin/Streptomycin (Invitrogen, 15140-122) and G418 (Invitrogen, 11811023) at a concentration of 400 μg/mL. The cells are seeded at a density of 7,000 cells/well into black, clear bottom 384-well plates (Corning, 3683) and incubated at 37° C. in air supplemented with 5% CO2 for 16 hrs.
(§4) Loading dye (25 μL/well), prepared from a FLIPR Calcium 6 Assay kit (Molecular Devices, R8190-Explorer) according to the manufacturer's instructions, and the serially diluted test compounds (10 μL/well) are added to the plate. The plate is then incubated for 30 mins at 37° C. in 5% CO2, then for 30 mins at ambient temperature and placed into a FlexStation III reader.

hOX2R [2] = biological target: T3, hOX2R (Homo sapiens, UniProt O43614); assay: Intracellular calcium measurements using stable-replicating cells, Method B (CHO cells, FLIPR Tetra), OX2; details: orexin A at EC75, read-out: pIC50 OX2 (converted)
T3 sequence (O43614 1-444): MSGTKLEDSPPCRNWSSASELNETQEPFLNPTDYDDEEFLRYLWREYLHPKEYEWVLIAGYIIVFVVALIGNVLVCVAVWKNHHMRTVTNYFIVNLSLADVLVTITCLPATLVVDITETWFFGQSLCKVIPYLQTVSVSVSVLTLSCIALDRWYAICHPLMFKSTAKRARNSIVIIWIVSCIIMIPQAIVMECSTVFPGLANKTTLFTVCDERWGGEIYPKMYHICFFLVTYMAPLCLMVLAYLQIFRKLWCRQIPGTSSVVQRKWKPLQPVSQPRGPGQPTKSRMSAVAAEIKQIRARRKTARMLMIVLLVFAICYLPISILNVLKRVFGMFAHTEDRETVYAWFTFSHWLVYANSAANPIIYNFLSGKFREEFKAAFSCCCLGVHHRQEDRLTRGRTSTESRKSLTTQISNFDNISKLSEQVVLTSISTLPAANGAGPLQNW
Method: as §1
(§5) Human OX1 or human OX2 receptor expressing CHO cells are plated into 384 well black, clear bottom, CellBIND plates at a seeding density of 10,000 cells/75 μL growth media. The seeded plates are incubated at 37° C. in air supplemented with 5% CO2 overnight.
(§6) The next day media is removed and replaced with 30 μL/well of cell loading buffer (a vial of Calcium 5 is solubilized in 20 mL of assay buffer) and the cells incubated for 1 hr at 37° C. The serially diluted test compounds (10 μL/well) are added to the cell plate by the FLIPR Tetra and the addition is monitored for 5 mins by the instrument. The cell plate is then removed and incubated for additional 25 mins in a humidified incubator at […] prior to being placed back into the FLIPR Tetra. Finally 10 μL of orexin A in assay buffer +0.1% (w/v) bovine serum albumin is dispensed by the FLIPR Tetra at an EC75 concentration determined for each assay run. Fluorescence is measured at excitation and emission wavelengths of 485 nm and 525 nm respectively and data analyzed using GraphPad Prism for the EC75 value of orexin A and Aplus to determine an IC50 value for each test compound.

hOX1R [3] = biological target: T2, hOX1R; assay: Intracellular calcium measurements using stable-replicating cells, Method B (CHO cells, FLIPR Tetra), OX1; details: orexin A at EC75, read-out: pIC50 OX1 (converted)
Method: as §1, §5, §6

hOX2R [4] = biological target: T3, hOX2R; assay: Intracellular calcium measurements using stable-replicating cells, Method A, OX2; details: orexin-A at 4×EC50, * = single experiment, read-out: pIC50 OX2 (converted)
Method: as §1, §2, §3, §4

hOX1R [5] = biological target: T2, hOX1R; assay: Intracellular calcium measurements using division-arrested cells, OX1; details: agonist orexin A at 2×EC50, * = single experiment, otherwise average of at least two, read-out: pIC50 OX1 (converted)
Summary of the method: (§7)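 Division-arrested cells expressing human OX1 or OX2 were seeded for 16 h, then loaded with Calcium 5 dye plus probenecid for 1 h at 37 °C. Compounds in HEPES-buffered HBSS with 0.1% BSA, pH 7.4, top final concentration 10 μM, were added 10 min before the FlexStation calcium read.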

hOX2R [6] = biological target: T3, hOX2R; assay: Intracellular calcium measurements using division-arrested cells, OX2; details: agonist orexin B at 2×EC50, * = single experiment, otherwise average of at least two, read-out: pIC50 OX2 (converted)
Summary of the method: as §7

Row | Structure (SMILES) | IC50 (orexin-1) [µM] | IC50 (hOX1R [1]) [µM] | IC50 (hOX2R [2]) [µM] | IC50 (hOX1R [3]) [µM] | IC50 (hOX2R [4]) [µM] | IC50 (hOX1R [5]) [µM] | IC50 (hOX2R [6]) [µM]
1 | CCOC(=O)c1ccc(NC[C@H](CC)N(C)C(=O)c2cc(Cl)ccc2-n2nccn2)nc1 [(S)-ethyl 6-((2-(5-chloro-N-methyl-2-(2H-1,2,3-triazol-2-yl)benzamido)butyl)amino) nicotinate] | > 10 | – | – | – | – | – | –
2 | CC[C@@H](CNc1ncc(C(F)(F)F)cn1)N(C)C(=O)c1cccc2cccnc12 [Example 79, (S)—N-methyl-N-(1-((5-(trifluoromethyl)pyrimidin-2-yl)amino)butan-2-yl)quinoline-8-carboxamide] | – | 0.1 | 2.51 | 0.0794 | 1.58 | – | –
3 | Cc1nc(-c2ccccc2)c(C(=O)N(C)[C@H](CNc2ccc(Cl)cn2)CC(C)C)s1 [Example 9, (S)—N-(1-((5-chloropyridin-2-yl)amino)-4-methylpentan-2-yl)-N,2-dimethyl-4-phenylthiazole-5-carboxamide] | – | 2 | – | – | > 10 | 0.251 | > 10
4 | CC[C@@H](CNc1ncc2ccccc2n1)N(C)C(=O)c1nc(C)ccc1-n1nccn1 [Example 61, (S)—N,6-dimethyl-N-(1-(quinazolin-2-ylamino)butan-2-yl)-3-(2H-1,2,3-triazol-2-yl)picolinamide] | – | 0.00398 | 3.16 | 0.00251 | 1.58 | – | –
5 | CC[C@@H](CNc1nc2ccccc2o1)N(C)C(=O)c1cc(Cl)ccc1-n1nccn1 [Example 43, (S)—N-(1-(benzo[d]oxazol-2-ylamino)butan-2-yl)-5-chloro-N-methyl-2-(2H-1,2,3-triazol-2-yl)benzamide] | – | 0.01 | 0.794 | 0.000794 | 1 | – | –
6 | CC[C@@H](CNc1ccc2ccccc2n1)N(C)C(=O)c1nc(C)ccc1-n1nccn1 [Example 75, (S)—N,6-dimethyl-N-(1-(quinolin-2-ylamino)butan-2-yl)-3-(2H-1,2,3-triazol-2-yl)picolinamide] | – | 0.00631 | 2.51 | 0.00126 | 2 | – | –
7 | CC[C@@H](CNc1ncc(C(F)(F)F)cn1)N(C)C(=O)c1nc(C)ccc1-n1nccn1 [Example 46, (S)—N,6-dimethyl-3-(2H-1,2,3-triazol-2-yl)-N-(1-((5-(trifluoromethyl)pyrimidin-2-yl)amino)butan-2-yl)picolinamide] | – | 0.0316 | > 10 | 0.00316 | > 10 | 0.02 | –
8 | CC[C@@H](CNc1ncc(C(F)(F)F)cn1)N(C)C(=O)c1nc(N(C)C)cc2ccccc12 [Example 81, (S)-3-(dimethylamino)-N-methyl-N-(1-((5-(trifluoromethyl)pyrimidin-2-yl)amino)butan-2-yl)isoquinoline-1-carboxamide] | – | 0.0398 | 0.251 | 0.00501 | 0.251 | – | –
9 | Cc1nc(-c2ccccc2)c(C(=O)N[C@H](CNc2ccc(Cl)cn2)C(C)C)s1 [Example 6, (S)—N-(1-((5-chloropyridin-2-yl)amino)-3-methylbutan-2-yl)-2-methyl-4-phenylthiazole-5-carboxamide] | – | 3.16 | – | – | > 10 | 0.501 | > 10
10 | CC[C@@H](CNc1ncc(C(F)(F)F)cn1)N(C)C(=O)c1nccc2ccccc12 [Example 85, (S)—N-methyl-N-(1-((5-(trifluoromethyl)pyrimidin-2-yl)amino)butan-2-yl)isoquinoline-1-carboxamide] | – | 0.0501 | – | 0.1 | 3.16 | – | –
11 | CC[C@@H](CNc1ccc2ccccc2n1)N(C)C(=O)c1cc(Cl)ccc1-n1nccn1 [Example 77, (S)-5-chloro-N-methyl-N-(1-(quinolin-2-ylamino)butan-2-yl)-2-(2H-1,2,3-triazol-2-yl)benzamide] | – | 0.00794 | 0.501 | 0.000794 | 1.26 | – | –
12 | CC[C@@H](CNc1ncc(C(F)(F)F)cn1)N(C)C(=O)c1nc(C)cc2ccccc12 [Example 78, (S)—N,3-dimethyl-N-(1-((5-(trifluoromethyl)pyrimidin-2-yl)amino)butan-2-yl)isoquinoline-1-carboxamide] | – | 0.0251 | – | 0.0158 | 1 | – | –
13 | CC[C@@H](CNc1ncc(C(F)(F)F)cn1)N(C)C(=O)c1cc(Cl)cc2cccnc12 [Example 80, (S)-6-chloro-N-methyl-N-(1-((5-(trifluoromethyl)pyrimidin-2-yl)amino)butan-2-yl)quinoline-8-carboxamide] | – | 0.0251 | 0.316 | 0.01 | 0.2 | – | –
14 | CC[C@@H](CNc1cnc(C(F)(F)F)cn1)N(C)C(=O)c1nc(C)ccc1-n1nccn1 [Example 47, (S)—N,6-dimethyl-3-(2H-1,2,3-triazol-2-yl)-N-(1-((5-(trifluoromethyl)pyrazin-2-yl)amino)butan-2-yl)picolinamide] | – | 0.00398 | > 3.98 | 0.00251 | > 7.94 | 0.0316 | –
15 | Cc1ccc(-n2nccn2)c(C(=O)N(C)[C@H](CNc2ncc(C(F)(F)F)cn2)CC(F)(F)F)n1 [Example 88, (S)—N,6-dimethyl-3-(2H-1,2,3-triazol-2-yl)-N-(4,4,4-trifluoro-1-((5-(trifluoromethyl)pyrimidin-2-yl)amino)butan-2-yl)picolinamide] | – | 0.0398 | – | 0.01 | > 10 | – | –
16 | CC[C@@H](CNc1nc2ccccc2s1)N(C)C(=O)c1nc(C)ccc1-n1nccn1 [Example 63, (S)—N-(1-(benzo[d]thiazol-2-ylamino)butan-2-yl)-N,6-dimethyl-3-(2H-1,2,3-triazol-2-yl)picolinamide] | – | 0.00158 | 0.501 | 0.00158 | 1.26 | – | –
